Results taken from PubChem BioAssay AID248 (DTP/NCI, 2004).
Several values for one entry are separate records, joined by “and”; a condition that tells them apart may be missing. Identical values can stand only once. Toxic doses and inconclusive results are not listed. No stated cut-off is given here; in the data, active means T/C of 150% or more; inactive means T/C below 125%.

System: L1210 leukemia ip in BDF1 mice, survival T/C
Experiment: NCI In Vivo Anticancer Drug Screen. Data for tumor model L1210 Leukemia (intraperitoneal) in B6D2F1 (BDF1) mice
Conditions: endpoint: mean survival time, higher = longer survival
Procedure, shortened: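 Mice bearing the transplanted tumor received compound or vehicle. Survival of the treated group was divided by that of the vehicle-treated control group to give the ratio.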

[1] = dose: 50.0 mg/kg/injection, schedule: Q01DX001 (ip), vehicle: saline
[2] = dose: 100.0 mg/kg/injection, schedule: Q01DX001 (ip), vehicle: saline
[3] = dose: 200.0 mg/kg/injection, schedule: Q01DX001 (ip), vehicle: saline
[4] = dose: 100.0 mg/kg/injection, schedule: Q01DX001 (ip), vehicle: carboxymethylcellulose (CMC)
[5] = dose: 200.0 mg/kg/injection, schedule: Q01DX001 (ip), vehicle: carboxymethylcellulose (CMC)
[6] = dose: 400.0 mg/kg/injection, schedule: Q01DX001 (ip), vehicle: carboxymethylcellulose (CMC)
[7] = dose: 400.0 mg/kg/injection, schedule: Q01DX001 (ip), vehicle: saline

Measured: T/C

O=C1c2ccccc2C(=O)N1Cc1ncn[nH]1
inactive: dose: 100.0 mg/kg/injection, schedule: Q01DX001 (ip), vehicle: saline with Tween-80 100 % of control | dose: 200.0 mg/kg/injection, schedule: Q01DX001 (ip), vehicle: saline with Tween-80 96 % of control | dose: 400.0 mg/kg/injection, schedule: Q01DX001 (ip), vehicle: saline with Tween-80 91 % of control

CCC#CC(=O)OCCCC
inactive: dose: 100.0 mg/kg/injection, schedule: Q04DX002 (ip), vehicle: saline 93 % of control | dose: 200.0 mg/kg/injection, schedule: Q04DX002 (ip), vehicle: saline 104 % of control | dose: 400.0 mg/kg/injection, schedule: Q04DX002 (ip), vehicle: saline 96 % of control

NC(Cc1ccccc1)C(=O)NCCCCCCCCCCNC(=O)C(N)Cc1ccccc1 (stereo not drawn)
inactive: [1] 98 % of control | [2] 104 % of control | [3] 103 % of control

CCOC(=O)c1cnc(C)nc1Nc1c(C)cccc1C
inactive: dose: 100.0 mg/kg/injection, schedule: Q01DX001 (ip), vehicle: Klucel (hydroxypropylcellulose) (HPC) 99 % of control | dose: 200.0 mg/kg/injection, schedule: Q01DX001 (ip), vehicle: Klucel (hydroxypropylcellulose) (HPC) 105 % of control | dose: 400.0 mg/kg/injection, schedule: Q01DX001 (ip), vehicle: Klucel (hydroxypropylcellulose) (HPC) 100 % of control

CC(CCC(C)OS(C)(=O)=O)OS(C)(=O)=O (stereo not drawn)
inactive: dose: 2.0 mg/kg/injection, schedule: Q01DX010 (ip), vehicle: saline 86 % of control and 87 % of control | dose: 3.1 mg/kg/injection, schedule: Q01DX009 (ip), vehicle: Klucel (hydroxypropylcellulose) (HPC) 96 % of control | dose: 4.0 mg/kg/injection, schedule: Q01DX009 (ip), vehicle: saline 97 % of control | dose: 4.0 mg/kg/injection, schedule: Q01DX010 (ip), vehicle: saline 100 % of control | dose: 6.25 mg/kg/injection, schedule: Q01DX009 (ip), vehicle: Klucel (hydroxypropylcellulose) (HPC) 102 % of control and 103 % of control and 101 % of control | dose: 6.25 mg/kg/injection, schedule: Q04DX002 (ip), vehicle: Klucel (hydroxypropylcellulose) (HPC) 96 % of control | dose: 8.0 mg/kg/injection, schedule: Q01DX009 (ip), vehicle: saline 101 % of control | dose: 8.0 mg/kg/injection, schedule: Q01DX010 (ip), vehicle: saline 89 % of control and 90 % of control | dose: 12.5 mg/kg/injection, schedule: Q01DX009 (ip), vehicle: Klucel (hydroxypropylcellulose) (HPC) 105 % of control [middle of 4 runs] | dose: 12.5 mg/kg/injection, schedule: Q04DX002 (ip), vehicle: Klucel (hydroxypropylcellulose) (HPC) 96 % of control and 100 % of control | dose: 16.0 mg/kg/injection, schedule: Q01DX009 (ip), vehicle: saline 108 % of control | dose: 16.0 mg/kg/injection, schedule: Q01DX010 (ip), vehicle: saline 106 % of control and 114 % of control | dose: 25.0 mg/kg/injection, schedule: Q01DX009 (ip), vehicle: Klucel (hydroxypropylcellulose) (HPC) 102 % of control and 88 % of control and 108 % of control | dose: 25.0 mg/kg/injection, schedule: Q04DX002 (ip), vehicle: Klucel (hydroxypropylcellulose) (HPC) 96 % of control and 93 % of control and 94 % of control | dose: 32.0 mg/kg/injection, schedule: Q01DX009 (ip), vehicle: saline 103 % of control | dose: 50.0 mg/kg/injection, schedule: Q01DX009 (ip), vehicle: Klucel (hydroxypropylcellulose) (HPC) 87 % of control | dose: 50.0 mg/kg/injection, schedule: Q01DX009 (ip), vehicle: saline with Tween-80 91 % of control and 93 % of control | dose: 50.0 mg/kg/injection, schedule: Q04DX002 (ip), vehicle: Klucel (hydroxypropylcellulose) (HPC) 107 % of control | dose: 100.0 mg/kg/injection, schedule: Q01DX009 (ip), vehicle: saline with Tween-80 98 % of control and 97 % of control | dose: 200.0 mg/kg/injection, schedule: Q01DX009 (ip), vehicle: saline with Tween-80 91 % of control and 87 % of control

C#CC1(O)CC[C@H]2[C@@H]3CCC4=CCCC[C@@H]4[C@H]3CC[C@@]21C (stereo partly drawn)
inactive: [4] 103 % of control | [5] 96 % of control | [6] 91 % of control

CC/C(=C(\CC)c1ccc(OC)cc1)c1ccc(O)cc1
inactive: dose: 15.0 mg/kg/injection, schedule: Q01DX Z (sc), vehicle: steriod suspending solution 105 % of control | dose: 30.0 mg/kg/injection, schedule: Q01DX Z (sc), vehicle: steriod suspending solution 106 % of control | dose: 60.0 mg/kg/injection, schedule: Q01DX Z (sc), vehicle: steriod suspending solution 96 % of control and 103 % of control | dose: 90.0 mg/kg/injection, schedule: Q01DX Z (sc), vehicle: steriod suspending solution 103 % of control | dose: 135.0 mg/kg/injection, schedule: Q01DX Z (sc), vehicle: steriod suspending solution 102 % of control | [3] 96 % of control | dose: 200.0 mg/kg/injection, schedule: Q01DX Z (sc), vehicle: steriod suspending solution 100 % of control | dose: 250.0 mg/kg/injection, schedule: Q01DX015 (sc), vehicle: steriod suspending solution 97 % of control | [7] 104 % of control | dose: 500.0 mg/kg/injection, schedule: Q01DX015 (sc), vehicle: steriod suspending solution 93 % of control | dose: 750.0 mg/kg/injection, schedule: Q01DX015 (sc), vehicle: steriod suspending solution 95 % of control | dose: 800.0 mg/kg/injection, schedule: Q01DX001 (ip), vehicle: saline 98 % of control | dose: 1000.0 mg/kg/injection, schedule: Q01DX015 (sc), vehicle: steriod suspending solution 90 % of control

COC(=N)c1ccc(C)c(I)c1
inactive: dose: 100.0 mg/kg/injection, schedule: Q04DX002 (ip), vehicle: Klucel (hydroxypropylcellulose) (HPC) 91 % of control | dose: 200.0 mg/kg/injection, schedule: Q04DX002 (ip), vehicle: Klucel (hydroxypropylcellulose) (HPC) 98 % of control | dose: 400.0 mg/kg/injection, schedule: Q04DX002 (ip), vehicle: Klucel (hydroxypropylcellulose) (HPC) 94 % of control

CC(=O)OC1CCC2(C)C(=CCC3C2CCC2(C)C(C(C)C(O)C4C(=O)OCC4C(c4ccccc4)(c4ccccc4)c4ccccc4)CCC32)C1 (stereo not drawn)
inactive: dose: 100.0 mg/kg/injection, schedule: Q04DX002 (sc), vehicle: gum acacia 95 % of control | dose: 200.0 mg/kg/injection, schedule: Q04DX002 (sc), vehicle: gum acacia 95 % of control | dose: 400.0 mg/kg/injection, schedule: Q04DX002 (sc), vehicle: gum acacia 92 % of control

O=C(Nc1cc(Cl)ccc1Cl)c1cccc(Cl)c1
inactive: dose: 100.0 mg/kg/injection, schedule: Q01DX009 (ip), vehicle: Klucel (hydroxypropylcellulose) (HPC) 93 % of control | dose: 200.0 mg/kg/injection, schedule: Q01DX009 (ip), vehicle: Klucel (hydroxypropylcellulose) (HPC) 100 % of control | dose: 400.0 mg/kg/injection, schedule: Q01DX009 (ip), vehicle: Klucel (hydroxypropylcellulose) (HPC) 97 % of control

Nc1nc(N)nc(-c2ccccc2N=NN2CCCCC2)n1
inactive: dose: 100.0 mg/kg/injection, schedule: Q04DX003 (ip), vehicle: Klucel (hydroxypropylcellulose) (HPC) 101 % of control | dose: 200.0 mg/kg/injection, schedule: Q04DX003 (ip), vehicle: Klucel (hydroxypropylcellulose) (HPC) 94 % of control | dose: 400.0 mg/kg/injection, schedule: Q04DX003 (ip), vehicle: Klucel (hydroxypropylcellulose) (HPC) 95 % of control

CC(O)CN(c1ccccc1)c1ccccc1 (stereo not drawn)
inactive: [4] 101 % of control | [5] 92 % of control | [6] 95 % of control

O=C(NCCCCCCNC(=O)OCc1ccccc1)OCc1ccccc1
inactive: dose: 10.0 mg/kg/injection, schedule: Q01DX Z (ip), vehicle: saline 98 % of control | dose: 30.0 mg/kg/injection, schedule: Q01DX Z (ip), vehicle: saline 96 % of control | dose: 100.0 mg/kg/injection, schedule: Q01DX Z (ip), vehicle: saline 100 % of control | dose: 300.0 mg/kg/injection, schedule: Q01DX Z (ip), vehicle: saline 98 % of control

COC1(c2ccccc2)Oc2ccccc2C(=O)C1(O)C[N+](=O)[O-] (stereo not drawn)
inactive: [1] 95 % of control | [2] 89 % of control | [3] 95 % of control | [7] 101 % of control

CCCN(CCC)CCCN(CCC)CCCCN(CCC)CCCN(CCC)CCC
inactive: [2] 98 % of control

O=C1c2cccc3cc([N+](=O)[O-])cc(c23)C(=O)N1Cc1ccco1
inactive: dose: 100.0 mg/kg/injection, schedule: Q04DX002 (ip), vehicle: saline with Tween-80 95 % of control | dose: 200.0 mg/kg/injection, schedule: Q04DX002 (ip), vehicle: saline with Tween-80 120 % of control | dose: 400.0 mg/kg/injection, schedule: Q04DX002 (ip), vehicle: saline with Tween-80 88 % of control

C[N+]1=C2CCCCCC2=C(N)CC1
inactive: dose: 6.25 mg/kg/injection, schedule: Q01DX009 (ip), vehicle: saline 104 % of control | dose: 12.5 mg/kg/injection, schedule: Q01DX009 (ip), vehicle: saline 100 % of control | dose: 25.0 mg/kg/injection, schedule: Q01DX009 (ip), vehicle: saline 100 % of control
